Activity calls are given as the source filed them. No cut-off for these calls is given here.
What was measured:
[1] = tested on: Echinochloa crus-galli; test: Herbicidal activity against Echinochloa crus-galli (barnyard grass) assessed as damage of seedlings; type: functional
[2] = tested on: Scenedesmus acutus; test: Phytotoxic activity against Scenedesmus acutus assessed as zeta-carotene accumulation; type: functional, organism-based
[3] = tested on: Scenedesmus acutus; test: Phytotoxic activity against Scenedesmus acutus assessed as phytoene accumulation; type: functional, organism-based

## CC(Cl)/C=C/C(=O)N(Cc1ccc(C(F)(F)F)cc1)CC(C)C (stereo unspecified)
[1]
  ED90: 31 gAi/ha

## CC(Cl)/C=C/C(=O)N(Cc1ccc(S(C)(=O)=O)cc1)CC(C)C (stereo unspecified)
[1]
  ED90: >1000 gAi/ha

## COc1ccc(C(=O)c2cccc(C)c2)cc1C
[2]
  Activity: Active

## CNc1cnn(-c2cccc(C(F)(F)F)c2)c(=O)c1Cl
[3]
  Activity: Active

## CC(Cl)/C=C/C(=O)N(Cc1ccc(Cl)cc1)CC(C)C (stereo unspecified)
[1]
  ED90: 16 gAi/ha

## CC(Cl)/C=C/C(=O)N(Cc1ccc(C#N)cc1)CC(C)C (stereo unspecified)
[1]
  ED90: 16 gAi/ha

From ChEMBL document CHEMBL3044816, “Mode of Action of Herbicidal N-Benzyl-4-chloro-N-isobutyl-2-pentenamides” (J Pestic Sci, 2002)
